Data on 3 compounds can be found in PMC3158247 (Journal of medicinal chemistry, 2011).

Bounds are passed on as bounds.

The subject of data set [1] is CL57BL/6 mice.
Data set [2] concerns HepG2.2.15 cell line. As to conditions: MTT assay. On the technique in general: Formazan colour is commonly taken as a measure of viable cells.
Data set [3] concerns HBV-transgenic mice (strain 1.3.32). Type of data set: in vivo. Conditions: oral gavage once daily for 14 days.

Take `Fc1cccc(Cl)c1C1CC(c2ccc(Cl)cc2)Nc2ncnn21` (racemic) [Compound 1a, 7-(2-Chloro-6-fluorophenyl)-5-(4-chlorophenyl)-4,5,6,7-tetrahydro-[1,2,4]triazolo[1,5-a]pyrimidine]: the tolerability entry in data set [1] (CL57BL/6 (normal) mice) is “well-tolerated”. Moreover, the “platelets, neutrophils, lymphocytes (trend)” value in data set [1] (single intravenous bolus 25 mg/kg, 24 hours) was “trend towards reduction of platelets and neutrophils, and also an increase in lymphocytes”. In addition, the serum chemistry result in data set [1] (single intravenous bolus, […] 1a and 7.9 mg/kg 3c respectively, 24 hours) was “unaffected”. Also, the “No cytotoxicity observed up to the highest concentration tested” value in data set [2] was > 50 µM. Further, in data set [3], the “alanine transaminase (ALT) and bilirubin” value is “elevated levels of alanine transaminase (ALT) and bilirubin in a minority of treated animals”; the “other serum chemistry changes” value is “did not result in any other obvious and significant dose-dependent serum chemistry changes”; the total sodium entry was “slight rise in total sodium”. In data set [3] (25 and 7.9 mg/kg), the “deaths as a result of compound exposure” value is “No animals were observed to have died as a result of compound exposure” and the “weight loss, morphological or behavioral changes” value was “No weight loss, morphological or behavioral changes were noted”.
As for `Fc1cccc(Cl)c1C1CC(c2ccc(Cl)cc2)Nc2ncnn21` (single isomer, unassigned) [enantiomer 1 of 1a], the “No cytotoxicity observed up to the highest concentration tested” value in data set [2] was > 50 µM.
In the case of `Fc1cccc(F)c1C1C=C(c2ccc(Cl)cc2)Nc2ncnn21` (centres unmarked) [Compound 3c, 5-(4-Chlorophenyl)-7-(2,6-difluorophenyl)-4,7-dihydro-[1,2,4]triazolo[1,5-a]pyrimidine], the “deaths as a result of compound exposure” value in data set [3] (25 and 7.9 mg/kg) is given as “No animals were observed to have died as a result of compound exposure”.
